Results taken from paper PMC8041284, “Tunable Methacrylamides for Covalent Ligand Directed Release Chemistry” (Journal of the American Chemical Society, 2021).
Where two headings read alike, the source gives them in different places.

Molecular target: BTK (Homo sapiens, UniProt Q06187)
Assay: biochemical
[1] = read-out: BTK inhibition (%), 0.75 uM BTK, […] probe 3l, 15 min preincubation

Chain of BTK (Q06187 402-655 limits assumed): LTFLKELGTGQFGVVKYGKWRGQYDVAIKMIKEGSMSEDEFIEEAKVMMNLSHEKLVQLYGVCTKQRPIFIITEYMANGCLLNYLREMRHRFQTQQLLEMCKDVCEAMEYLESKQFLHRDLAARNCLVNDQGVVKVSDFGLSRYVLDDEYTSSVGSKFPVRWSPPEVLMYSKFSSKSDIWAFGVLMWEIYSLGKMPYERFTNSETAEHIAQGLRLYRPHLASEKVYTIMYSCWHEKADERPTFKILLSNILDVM

C=CC(=O)Nc1cc(Nc2nccc(-c3cn(C)c4ccccc34)n2)c(OC)cc1N(C)CCN(C)C [PCM-0215305]
inhibition at 10 µM [1]: 80.7%

Nc1[nH]c(=O)ncc1Br [PCM-0216584]
inhibition at 10 µM [1]: 8.5%

CN1CCC(=C2c3ccccc3C=Cc3ccccc32)CC1 [PCM-0064430]
inhibition at 10 µM [1]: -9.3%

Cn1cc(-c2[nH]c3cc(NC(=O)[C@H](N)C4CCCCC4)cc4c3c2C=NNC4=O)cn1 [PCM-0095372]
inhibition at 10 µM [1]: 111%

C1=Cc2ccccc2Nc2ccccc21 [PCM-0215149]
inhibition at 10 µM [1]: 4.7%

NC(=O)Nc1sc(-c2ccc(F)cc2)cc1C(N)=O [PCM-0095452]
inhibition at 10 µM [1]: 96.6%

O=C(N[C@H](CO)[C@H](O)c1ccc([N+](=O)[O-])cc1)C(Cl)Cl [PCM-0214645]
inhibition at 10 µM [1]: -8.6%

Cc1ccn[nH]1 [PCM-0215907]
inhibition at 10 µM [1]: 4.6%

C/C=C(\C)C(=O)O [PCM-0215012]
inhibition at 10 µM [1]: 15.6%

C=CCc1cccc(/C=N/NC(=O)CN2CCN(Cc3ccccc3)CC2)c1O [PCM-0064890]
inhibition at 10 µM [1]: 9%

O=[N+]([O-])c1ccc(Nc2nc(N3CCOCC3)nc(N3CCOCC3)n2)cc1 [PCM-0215468]
inhibition at 10 µM [1]: 0%

O=C(CCCCCCNC(=O)c1cnc(N(c2ccccc2)c2ccccc2Cl)nc1)NO [PCM-0214593]
inhibition at 10 µM [1]: -6.9%

CC1=C(/C=C/C(C)=C/C=C/C(C)=C\C(=O)O)C(C)(C)CCC1 [PCM-0065511]
inhibition at 10 µM [1]: -42.1%

CCN1CCN(Cc2ccc(Nc3ncc(F)c(-c4cc(F)c5nc(C)n(C(C)C)c5c4)n3)nc2)CC1 [PCM-0095736]
inhibition at 10 µM [1]: -12.4%

CNC1CCC(N(Cc2cccc(-c3ccncc3)c2)C(=O)c2sc3ccccc3c2Cl)CC1 (stereo not drawn) [PCM-0215509]
inhibition at 10 µM [1]: -8.5%

CC(C)=CCC[C@](C)(O[C@@H]1O[C@H](CO)[C@@H](O)[C@H](O)[C@H]1O)[C@H]1CC[C@]2(C)[C@@H]1[C@H](O)C[C@@H]1[C@@]3(C)CC[C@H](O)C(C)(C)[C@@H]3[C@@H](O[C@@H]3O[C@H](CO)[C@@H](O)[C@H](O)[C@H]3O)C[C@]12C [PCM-0215029]
inhibition at 10 µM [1]: 14%

COc1ccc(C2(C#N)CCC(C(=O)O)CC2)cc1OC1CCCC1 (stereo not drawn) [PCM-0095129]
inhibition at 10 µM [1]: -29.6%

CN(C)CCCn1cc(C2=C(c3c[nH]c4ccccc34)C(=O)NC2=O)c2ccccc21 [PCM-0095737]
inhibition at 10 µM [1]: 47.6%

Cc1ccc(C(C)C)c(O)c1 [PCM-0215949]
inhibition at 10 µM [1]: 23.2%

CCCCC[C@H](O)/C=C/[C@H]1[C@H](O)CC(=O)[C@@H]1C/C=C\CCCC(=O)O [PCM-0215185]
inhibition at 10 µM [1]: -11.7%

Cc1ccc(Nc2c(F)cccc2Cl)c(CC(=O)O)c1 [PCM-0090280]
inhibition at 10 µM [1]: 6.9%

CO[C@H]1/C=C\C=C(/C)C(=O)NC2=CC(=O)C(NCCN(C)C)=C(C[C@@H](C)C[C@H](OC)[C@H](O)[C@@H](C)/C=C(\C)[C@@H]1OC(N)=O)C2=O [PCM-0094961]
inhibition at 10 µM [1]: 28.3%

CC(C)(C)NC(=O)N[C@H](C(=O)N1C[C@H]2[C@@H]([C@H]1C(=O)NC(CC1CCC1)C(=O)C(N)=O)C2(C)C)C(C)(C)C (stereo partly drawn) [PCM-0214929]
inhibition at 10 µM [1]: 8.6%

CNC(=C[N+](=O)[O-])NCCSCc1csc(CN(C)C)n1 [PCM-0086495]
inhibition at 10 µM [1]: 2.1%

C[C@@H](NC(=O)c1ncnc(N)c1Cl)c1ncc(C(=O)Nc2cc(C(F)(F)F)c(Cl)cn2)s1 [PCM-0215620]
inhibition at 10 µM [1]: -12.4%

CC(=O)OCC1=C(C(=O)O)N2C(=O)[C@@H](NC(=O)CSc3ccncc3)[C@H]2SC1 [PCM-0215254]
inhibition at 10 µM [1]: 3.1%

C=C1C(=O)O[C@@H]2/C=C(\C)CC/C=C(\C)CC[C@@H]12 [PCM-0214614]
inhibition at 10 µM [1]: 46.7%

OC[C@H]1O[C@@](CO)(OC[C@@]2(OC[C@@]3(O[C@H]4O[C@H](CO)[C@@H](O)[C@H](O)[C@H]4O)O[C@H](CO)[C@@H](O)[C@@H]3O)O[C@H](CO)[C@@H](O)[C@@H]2O)[C@@H](O)[C@@H]1O [PCM-0216359]
inhibition at 10 µM [1]: 7.7%

CN1CC(=O)N=C1N [PCM-0090615]
inhibition at 10 µM [1]: -3.4%

Cc1cc2nc3c(=O)[nH]c(=O)nc-3n(C[C@H](O)[C@H](O)[C@H](O)COP(=O)(O)O)c2cc1C [PCM-0215946]
inhibition at 10 µM [1]: 3.4%

CC(=O)c1ccccc1 [PCM-0216190]
inhibition at 10 µM [1]: 3.1%

NCCNc1ccc(NCCN)c2c1C(=O)c1ccncc1C2=O [PCM-0215996]
inhibition at 10 µM [1]: 23.2%

CCOC(=O)Nc1ccc(NCc2ccc(F)cc2)nc1N [PCM-0065288]
inhibition at 10 µM [1]: -8.6%

O=C(c1ccc(Oc2ccccc2)cc1Cl)c1c[nH]c2ncnc(N[C@@H]3CC[C@@H](CO)OC3)c12 [PCM-0216245]
inhibition at 10 µM [1]: 116%

CC1(C)[C@H]2CC[C@]1(C)[C@H](O)C2 [PCM-0215078]
inhibition at 10 µM [1]: -20.2%

C=C1C2CCC(C2)C1(C)C (stereo not drawn) [PCM-0216213]
inhibition at 10 µM [1]: 18.5%

NC(=O)c1cnc(NCCc2ccc(O)c(Cl)c2)nc1NCc1ccccc1 [PCM-0216041]
inhibition at 10 µM [1]: 47.1%

CN1CCc2c(c3ccccc3n2Cc2ccc(C(=O)NO)cc2)C1 [PCM-0095487]
inhibition at 10 µM [1]: 0.8%

CC(C)[C@H](O)C(=O)N[C@@H](C)C(=O)N[C@@H]1C(=O)N(C)CCc2ccccc21 [PCM-0214637]
inhibition at 10 µM [1]: -3.1%

Cc1cc(C)cc(NC(=O)Cc2ccc(OC(C)(C)C(=O)O)cc2)c1 [PCM-0214786]
inhibition at 10 µM [1]: -2.3%

Nc1nc2n[nH]nc2c(=O)[nH]1 [PCM-0085758]
inhibition at 10 µM [1]: 4.7%

Cc1cc(-c2cc(C)c(NCCCS(=O)(=O)O)c(C)c2)cc(C)c1N [PCM-0216076]
inhibition at 10 µM [1]: 7.7%

CC(C)n1cnc2c(NCCc3ccc(O)cc3)nc(-c3csc4ccccc34)nc21 [PCM-0095500]
inhibition at 10 µM [1]: 34.2%

Cc1cccc(Cc2cnc[nH]2)c1C [PCM-0095257]
inhibition at 10 µM [1]: -20.2%

Cn1c(N2CCCCS2(=O)=O)nc(C(=O)NCc2ccc(F)cc2)c(O)c1=O [PCM-0094999]
inhibition at 10 µM [1]: -20.2%

CC(C)(O)CNc1nc(Nc2ccnc(C(F)(F)F)c2)nc(-c2cccc(C(F)(F)F)n2)n1 [PCM-0215637]
inhibition at 10 µM [1]: 19.3%

CC(C)OC(=O)C1=CN(C(=O)c2ccc(F)c(F)c2)CC(C)(C)c2c1[nH]c1ccccc21 [PCM-0095387]
inhibition at 10 µM [1]: 3.4%

CC(C)=CCOc1ccc(/C=C/C(=O)c2ccc(OCC=C(C)C)cc2OCC(=O)O)cc1 [PCM-0216579]
inhibition at 10 µM [1]: 16.2%

CN(C)CCOc1ccc(-c2nc(-c3ccc4c(c3)CCC4=NO)c(-c3ccncc3)[nH]2)cc1 [PCM-0095262]
inhibition at 10 µM [1]: -2.1%

CC(C)=CCC[C@](C)(O[C@@H]1O[C@H](CO[C@@H]2OC[C@@H](O)[C@H](O)[C@H]2O)[C@@H](O)[C@H](O)[C@H]1O)[C@H]1CC[C@]2(C)[C@@H]1[C@H](O)C[C@@H]1[C@@]3(C)CC[C@H](O[C@@H]4O[C@H](CO)[C@@H](O)[C@H](O)[C@H]4O)C(C)(C)[C@@H]3CC[C@]12C [PCM-0214676]
inhibition at 10 µM [1]: 35.8%

CCc1cc2c(cc1CC)CC(NC[C@H](O)c1ccc(O)c3[nH]c(=O)ccc13)C2 [PCM-0095564]
inhibition at 10 µM [1]: 19.5%

O=C(NNc1nc2cc(F)ccc2n2cccc12)c1cnccn1 [PCM-0215229]
inhibition at 10 µM [1]: 30.1%

C=C1[C@H]2CC[C@@H]3[C@H]2C(C)(C)CCC[C@]13C [PCM-0216219]
inhibition at 10 µM [1]: 4.6%

C=C1CC[C@H](O)C/C1=C/C=C1\CCC[C@]2(C)[C@@H]([C@H](C)/C=C/[C@H](C)C(C)C)CC[C@@H]12 [PCM-0214746]
inhibition at 10 µM [1]: -23.3%

C[C@H]1[C@H](OC(=O)CCC(=O)O)O[C@@H]2O[C@@]3(C)CC[C@H]4[C@H](C)CC[C@@H]1[C@@]24OO3 [PCM-0214643]
inhibition at 10 µM [1]: 6.2%

CC(C)(C)OC(=O)Nc1ccc(-c2cc(C(=O)NCCCCCCC(=O)NO)no2)cc1 [PCM-0215407]
inhibition at 10 µM [1]: 20.1%

O=C(NS(=O)(=O)c1ccc(Br)s1)c1ccc(Cl)cc1Cl [PCM-0095739]
inhibition at 10 µM [1]: -10%

COc1cc2oc(-c3ccccc3)cc(=O)c2c(OC)c1OC [PCM-0216616]
inhibition at 10 µM [1]: -34%

O=c1cc(-c2ccc(O)c(O)c2)oc2cc(O)cc(O)c12 [PCM-0086559]
inhibition at 10 µM [1]: 84.8%

O=C1CCC[C@@H]2[C@H]3CCCN4CCC[C@H](CN12)[C@@H]34 [PCM-0215044]
inhibition at 10 µM [1]: -16.3%

O=S(=O)(c1ccccc1)c1cnc2c(N3CCNCC3)cccc2c1 [PCM-0095346]
inhibition at 10 µM [1]: 3.1%

COC(=O)c1ccc(O)c(OC)c1 [PCM-0214879]
inhibition at 10 µM [1]: -12.5%

Cc1cc(C)c(Nc2ccnc(Nc3ccc(C#N)cc3)n2)c(C)c1 [PCM-0095398]
inhibition at 10 µM [1]: 7%

CNCC[C@@H](Oc1ccccc1C)c1ccccc1 [PCM-0086150]
inhibition at 10 µM [1]: 11.7%

CC(C)c1cnn2c(NCc3ccccc3)cc(NCCCCCCN)nc12 [PCM-0095134]
inhibition at 10 µM [1]: -25.5%

NCCOc1cc(C(=O)Nc2cc(OCCN)c3ccccc3n2)nc(C(=O)Nc2cc(OCCN)c3ccccc3n2)c1 [PCM-0215476]
inhibition at 10 µM [1]: 59.5%

Oc1ccc(CC2NCCc3cc(O)c(O)cc32)cc1 (stereo not drawn) [PCM-0214948]
inhibition at 10 µM [1]: -5.4%

C[C@@]12C[C@@H](c3ccoc3)OC(=O)[C@@H]1CC[C@]1(C)[C@H]2[C@@H]2C=C[C@@]1(O)C(=O)O2 [PCM-0216442]
inhibition at 10 µM (read-out: BTK inhibition (%)): 0%

COc1cc(C(=O)O)ccc1NC(=O)[C@@H]1N[C@@H](CC(C)(C)C)[C@](C#N)(c2ccc(Cl)cc2F)[C@H]1c1cccc(Cl)c1F [PCM-0215391]
inhibition at 10 µM [1]: 27.8%

Cc1cc(-c2ccc(CC(=O)Nc3ccc(-c4cccnc4)cc3)cc2)ccn1 [PCM-0095743]
inhibition at 10 µM [1]: -11.6%

C=CC(=O)N1C[C@H](Nc2ncnc3[nH]ccc23)CC[C@@H]1C [PCM-0215972]
inhibition at 10 µM [1]: 95%

N[C@@H](Cc1cc(I)c(Oc2cc(I)c(O)c(I)c2)c(I)c1)C(=O)O [PCM-0085937]
inhibition at 10 µM [1]: 19.5%

O=C1Cc2ccccc2N1 [PCM-0215133]
inhibition at 10 µM [1]: 1.6%

CN1CCC(=C2c3ccccc3CCc3cccnc32)CC1 [PCM-0090351]
inhibition at 10 µM [1]: -2.8%

Cc1ccc(S(=O)(=O)Nc2cc(-c3ccc(C#N)s3)ccc2C)cc1 [PCM-0214896]
inhibition at 10 µM [1]: -6.2%

CC(=O)O[C@H]1CC/C(C)=C/CC/C(C)=C/C[C@]2(C(C)C)CC[C@@]1(C)O2 [PCM-0216348]
inhibition at 10 µM [1]: -10%

N[C@H]1C[C@@H]1c1ccccc1 [PCM-0095814]
inhibition at 10 µM [1]: -6.2%

O=C(O)c1cc(C(F)(F)F)ccc1N1CC[C@H](OCc2ccccn2)C1 [PCM-0215430]
inhibition at 10 µM [1]: 8.5%
